# Legend:
# (H^+ +K^+)-ATPase = target: T1, (H^+ +K^+)-ATPase (Canis lupus familiaris, UniProt P50996); assay: Inhibition of (H^+ +K^+)-ATPase from Canine Gastric Mucosa; assay type: biochemical, canine (mongrel dogs); conditions: canine gastric mucosa microsomes, pH 6.0, 30 min preincubation with compound at 37°
# T1 construct: from tissue; host or cells: microsomes from glandular gastric mucosa (antral and cardiac regions removed) of mongrel dogs, lyophilized
# Description: Mongrel dogs weighing 15 to 25 kilograms were fasted for twenty-four hours, with water provided ad libitum. The animals were anesthetized with pentobarbital and the stomachs were removed. Subsequent tissue manipulations and subcellular fractionations were performed at 0° to 4° C. After the stomachs were cut open and rinsed with tap water, the antral and cardiac regions were removed and the remaining tissue was rinsed three times in saline. The glandular mucosa was removed mechanically, chopped finely in a medium containing 10 mM Tris hydrochloride (pH 7.4) and 250 mM sucrose, and homogenized. The homogenate was centrifuged at 20,000xg for twenty minutes and the pellet discarded. The supernatant was then centrifuged at 150,000xg for ninety minutes and the supernatant discarded. […]
# (H^+ +K^+)-ATPase activity for each test compound was determined, in duplicate, by measuring the release of inorganic phosphate, which was assayed according to the method of J. ChandraRajan and L. Klein. […] At least fifteen minutes later, the optical absorbance at 870 nm (which was proportional to inorganic phosphate concentration up to 100 nmoles per tube, as determined by a standard curve) was obtained. […]
# (H^+ +K^+)-ATPase activity is represented by the difference between the measured activities in the presence of potassium ion (K^+ -stimulated) and in the absence of potassium ion (basal).
# gastric acid secretion = assay: Inhibition of Gastric Acid Secretion in Gastric Fistula Beagle Dogs; assay type: in vivo; conditions: 3 mg/kg dose, i.v.; histamine-stimulated, four-hour period
# From the text: Inhibition of Gastric Acid Secretion in Gastric Fistula Beagle Dogs
# Adult female beagle dogs weighing 6 to 11 kilograms obtained from Laboratory Research Enterprises (Kalamazoo, Mich.) or from Hazelton Research Animals (Cumberland, Va.) were surgically implanted with a simple Thomas-type gastric cannula. After recovery from surgery, the dogs were trained to stand quietly, fully conscious, in Pavlov-type dog restraining slings and were acclimated to intravenous infusion of histamine dihydrochloride. During the course of these studies, no dog was used more than once a week. All dogs were deprived of food, but not water, for 18 hours prior to each assay. […] The volume of gastric secretions, collected in plastic bottles affixed to the cannula, were measured to the nearest 0.1 ml at 30 minute intervals. […]
# Intravenous dosing: Following a 30-minute basal secretion period, test compounds were administered intravenously (i.v.). […] The pH and titratable acidity were determined for samples from each collection period. […]
# Data from each protocol were analyzed for three gastric sample variables: volume of gastric juice, acid concentration, and total acid output. Percent inhibition for each four-hour experimental period was determined for each parameter by comparison with 3 to 4 controls in which only food was given. Estimates of ED50 's were determined from dose response curves.
# T1 sequence (P50996 whole entry): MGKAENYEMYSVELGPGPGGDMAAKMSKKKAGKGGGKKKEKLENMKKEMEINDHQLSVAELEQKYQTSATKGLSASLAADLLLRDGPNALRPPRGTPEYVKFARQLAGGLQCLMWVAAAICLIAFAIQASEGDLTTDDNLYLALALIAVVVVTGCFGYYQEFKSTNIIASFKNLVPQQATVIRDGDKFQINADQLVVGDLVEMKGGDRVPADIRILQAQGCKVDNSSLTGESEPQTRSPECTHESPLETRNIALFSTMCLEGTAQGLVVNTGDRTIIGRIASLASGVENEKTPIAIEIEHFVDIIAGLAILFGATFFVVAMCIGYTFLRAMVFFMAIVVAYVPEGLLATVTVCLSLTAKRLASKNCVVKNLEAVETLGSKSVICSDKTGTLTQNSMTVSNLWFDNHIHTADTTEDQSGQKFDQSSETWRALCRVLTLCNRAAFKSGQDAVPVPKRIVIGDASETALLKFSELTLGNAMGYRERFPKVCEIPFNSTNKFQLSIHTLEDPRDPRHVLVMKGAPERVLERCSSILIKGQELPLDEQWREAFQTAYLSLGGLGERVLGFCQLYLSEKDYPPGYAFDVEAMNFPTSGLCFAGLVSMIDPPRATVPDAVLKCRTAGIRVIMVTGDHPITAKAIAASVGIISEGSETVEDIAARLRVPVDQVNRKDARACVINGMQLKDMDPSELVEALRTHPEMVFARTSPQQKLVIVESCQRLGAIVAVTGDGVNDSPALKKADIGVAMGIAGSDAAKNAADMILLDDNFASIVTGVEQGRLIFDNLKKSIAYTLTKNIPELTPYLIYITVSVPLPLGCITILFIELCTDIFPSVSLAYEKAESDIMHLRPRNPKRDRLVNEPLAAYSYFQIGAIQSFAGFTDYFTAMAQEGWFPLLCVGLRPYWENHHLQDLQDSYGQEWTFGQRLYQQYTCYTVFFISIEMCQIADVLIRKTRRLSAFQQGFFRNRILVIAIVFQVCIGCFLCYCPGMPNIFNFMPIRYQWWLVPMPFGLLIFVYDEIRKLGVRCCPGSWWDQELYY
# T1 sequence (P33704 whole entry partner): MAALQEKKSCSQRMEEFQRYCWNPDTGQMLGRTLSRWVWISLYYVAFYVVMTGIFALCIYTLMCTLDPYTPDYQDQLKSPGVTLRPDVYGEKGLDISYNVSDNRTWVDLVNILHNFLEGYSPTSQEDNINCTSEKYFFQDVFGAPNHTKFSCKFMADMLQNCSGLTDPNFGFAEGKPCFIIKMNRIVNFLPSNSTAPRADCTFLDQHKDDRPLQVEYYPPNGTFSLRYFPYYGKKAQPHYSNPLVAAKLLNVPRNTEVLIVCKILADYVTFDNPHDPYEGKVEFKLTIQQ
compound,measurement,setting,value
"Nc1ncccc1C[S+]([O-])c1nc2ccccc2[nH]1.O (centres unmarked) [Example 3, 3-[(1H-benzimidazol-2-ylsulfinyl)methyl]-2-pyridinamine hydrate]",IC50,(H^+ +K^+)-ATPase,100 µM
same,Gastric-Fistula Beagle % Inhibition,gastric acid secretion,41%
